Measured values reported in patent US11439980B2, “Contaminant-activated photocatalysis” (UNIVERSITY OF FLORIDA RESEARCH FOUNDATION, INC., priority 2016, dated 2022).

Tests used:
[1] = Photocatalytic degradation of Mordant Orange on coated tiles under visible light; settings: MO on anatase coating, N=4
Method: (§1) Photocatalytic coating formulation was prepared by adding 10 mg of anatase (A7) to 10 mL of dilute NaOH (pH=9.5) in a 20 mL scintillation vial wrapped with aluminum foil. The suspension was sonicated (Misonix Sonicator 3000, Farmingdale, NY) at the highest power level providing 180-200 W for 30 minutes total (10 min on/2 min off×3). Similarly, rutile (R22) and silica (S15) coating formulations were prepared without exposing to visible light. In case of anatase+PHF, the anatase suspension was sonicated for 30 minutes followed by addition of 1 mL of a PHF solution (1000 or 100 mg/L). The nanocomposites suspension was mixed with a magnetic stirrer for 10 minutes in dark.
(§2) Ceramic tiles were utilized to evaluate the photocatalytic degradation of organic dye and inactivation of microbes. […]
(§3) The photocatalytic experiments were carried out under fluorescent lamps (General Electric model T8 Ultramax F28T8-SPX41) at visible light irradiance of 1.8-2.0 W/m^2. […] The visible light and UVA irradiances were measured with a PMA 2140 Global detector or a PMA 2110 UVA detector attached to a PMA2110 meter (Solar Light Co., Glenside, Pa.).
(§4) The temporal changes in dye concentration were determined by measuring the absorbance after predetermined times of exposure to visible light. The inactivation of S. aureus was evaluated by determining the viable counts after exposure to visible light. […]

[2] = Photocatalytic degradation of Procion Red on coated tiles under visible light; settings: PR on anatase coating, N=4
Method: as §1, §2, §3, §4

Substance	overall pseudo first order degradation rate [1] [h⁻¹]	overall pseudo first order degradation rate [2] [h⁻¹]
Mordant Orange	0.01	–
Procion Red	–	0.023
